Assay results: patent US20240269301A1, “METHOD FOR INITIATING POLYMERIZATION OF AMINO ACID N-CARBOXYANHYDRIDES IN AQUEOUS PHASE” (PEKING UNIVERSITY, priority 2021, published 2024)
Where a name gives a salt, the structure may show the parent alone.

Assay: Solubility of doxorubicin in PBS (absorbance 495 nm)
Format: physicochemical
Details: FIG. 38
Experimental: Determination of doxorubicin content: 600, 300, 150, 75, 37.5, 18.75, 9.375, and 0 μg/mL DOX was formulated as a standard curve. 5 mg of doxorubicin hydrochloride was weighed and added to 1 mL of PBS. 10 mg of DOX-PLP was weighed and added to 100 μL of PBS. After dissolving by vortexing, the mixture was centrifuged at 21,000 for 10 min, and the supernatant was diluted to an appropriate multiple. The absorbance value was measured at 495 nm, and the DOX content was calculated based on the absorbance value of the standard curve.

## COc1cccc2c1C(=O)c1c(O)c3c(c(O)c1C2=O)C[C@@](O)(C(=O)CO)C[C@@H]3O[C@H]1C[C@H](N)[C@H](O)[C@H](C)O1 [doxorubicin hydrochloride]
  solubility limit: 573±22 μg/mL DOX
